# Laboratory results from patent US7781468B2, “Tyrosine derivatives substituted by N-arylacryloyl as agonists of hPPAR alpha and/or hPPAR gamma” (Beijing Molecule Science Technology Co., Ltd., priority 2004, dated 2010).
# Tests used:
# Human PPARγ = molecular target: T1, Human PPARγ (Homo sapiens, UniProt P37231); test: Activity assay on activating human PPARγ (GAL4 chimeric receptor luciferase reporter, transient transfection in 293-T cells); format: cell-based; settings: for Photon number (×10^4) / Increased multiple vs control: compound 10 μM; for Photon number (×10^4): luciferase measured 24 h after administration, control 1.4; for Increased multiple vs control: vs 0.2‰ DMSO blank control; for EC50: activation of PPARγ
# T1 construct: expressed in transfected cells; host or cells: 293-T cells
# T1 sequence (P37231 238-503 limits assumed): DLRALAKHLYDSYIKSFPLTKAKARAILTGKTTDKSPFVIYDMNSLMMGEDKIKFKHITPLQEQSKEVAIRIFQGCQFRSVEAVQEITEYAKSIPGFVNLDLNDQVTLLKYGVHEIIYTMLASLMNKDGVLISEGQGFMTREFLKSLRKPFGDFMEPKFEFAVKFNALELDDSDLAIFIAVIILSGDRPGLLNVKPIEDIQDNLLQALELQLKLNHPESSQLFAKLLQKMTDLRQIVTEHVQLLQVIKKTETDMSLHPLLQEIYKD
# Method: (§1) The compounds were screened with respect to their functional effect of instantaneous transfection in 293-T cells, so that their capabilities of activating PPAR subtypes were determined. A chimeric receptor system as established in advance was used to compare the influence of receptor subtypes on the transcription activity of same target gene, with Rluc as an internal control to reduce the endogenous influence. Human PPARα and PPARγ ligand-binding domains were fused respectively with yeast transcription factor GAL4 DNA-binding domains, and then linked to expression vector pM of mammal, to thereby construct two plasmids pM-hPPARα/GAL4 and pM-PPARγ/GAL4. GAL4 DNA-binding area was linked to pB4-tk-luc, to thereby construct pB4-RES-tk-luc (a firefly luciferase reporter gene comprising GAL4 DNA-binding site). pRL-CMV-Rluc was used as an internal control to normalize transfection efficiency and endogenous influence.
# (§2) 293-T cells were incubated in a 48-well plate at a cell density of 2-4×10^4/well, using a phenol red-free and antibiotic-free 1640 medium containing 10% defatted fetal calf serum (FCS). After culturing for 48 h, the medium was replaced with a phenol red-free and antibiotic-free 1640 medium containing 5% defatted FCS, and then three plasmids pM-hPPAR/GAL4, pB4-RES-tk-luc and pRL-CMV-Rluc pertaining to two subtypes were respectively co-transfected into the 293-T cells. The strength of luciferase was measured at the time of 24 h after administration, with 0.2‰ DMSO as a blank control.
# Human PPARα = molecular target: T2, Human PPARα (Homo sapiens, UniProt Q07869); test: Activity assay on activating human PPARα (GAL4 chimeric receptor luciferase reporter, transient transfection in 293-T cells); format: cell-based; settings: for Photon number (×10^4) / Increased multiple vs control: compound 10 μM; for Photon number (×10^4): luciferase measured 24 h after administration, control 2.1; for Increased multiple vs control: vs 0.2‰ DMSO blank control; for EC50: activation of PPARα
# T2 construct: expressed in transfected cells; host or cells: 293-T cells
# T2 sequence (Q07869 239-466 limits assumed): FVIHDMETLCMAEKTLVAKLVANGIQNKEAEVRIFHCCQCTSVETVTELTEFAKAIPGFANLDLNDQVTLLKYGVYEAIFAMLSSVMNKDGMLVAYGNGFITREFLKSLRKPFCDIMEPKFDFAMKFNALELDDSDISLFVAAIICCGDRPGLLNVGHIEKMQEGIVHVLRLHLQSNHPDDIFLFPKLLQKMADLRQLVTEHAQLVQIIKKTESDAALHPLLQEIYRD
# Method: as §1, §2
melting point,Photon number (×10^4) (Human PPARγ),Increased multiple vs control (Human PPARγ),Photon number (×10^4) (Human PPARα),Increased multiple vs control (Human PPARα),EC50 (Human PPARγ),EC50 (Human PPARα),Compound
188 to 190 °C,–,–,–,–,–,–,"Cc1oc(-c2ccccc2)nc1CCOc1ccc(C[C@H](NC(=O)C=Cc2ccc(F)cc2)C(=O)O)cc1 [Example 3, (2S)-2-(3-(4-fluorophenyl)acryloylamino)-3-{4-[2-(5-methyl-2-phenyl-1,3-oxazol-4-yl)-ethoxy]-phenyl}-propanoic acid]"
–,29.0 ×10^4,20.7,8.6 ×10^4,4.1,–,–,"Cc1oc(-c2ccccc2)nc1CCOc1ccc(C[C@H](NC(=O)C=Cc2ccc(F)c(F)c2)C(=O)O)cc1 [Example 7, (2S)-2-[3-(3,4-difluorophenyl)acryloylamino]-3-{4-[2-(5-methyl-2-phenyl-1,3-oxazol-4-yl)-ethoxy]-phenyl}-propanoic acid]"

# Continued, compound first:
Compound,melting point,Photon number (×10^4) (Human PPARγ),Increased multiple vs control (Human PPARγ),Photon number (×10^4) (Human PPARα),Increased multiple vs control (Human PPARα),EC50 (Human PPARγ),EC50 (Human PPARα)
"Cc1oc(-c2ccccc2)nc1CCOc1ccc(C[C@H](NC(=O)C=Cc2ccc(F)cc2F)C(=O)O)cc1 [Example 8, (2S)-2-[3-(2,4-difluorophenyl)-acryloylamino]-3-{4-[2-(5-methyl-2-phenyl-1,3-oxazol-4-yl)-ethoxy]-phenyl}-propanoic acid]",–,27.6 ×10^4,19.7,18.8 ×10^4,8.9,1160 nM,4970 nM
"Cc1oc(-c2ccccc2)nc1CCOc1ccc(C[C@H](NC(=O)C=Cc2ccco2)C(=O)O)cc1 [Example 9, (2S)-2-(3-(furan-2-yl)-acryloylamino)-3-{4-[2-(5-methyl-2-phenyl-1,3-oxazol-4-yl)-ethoxy]-phenyl}-propanoic acid]",199 to 201 °C,23.7 ×10^4,16.9,9.8 ×10^4,4.7,74 nM,770 nM
"Cc1ccc(C=CC(=O)N[C@@H](Cc2ccc(OCCc3nc(-c4ccccc4)oc3C)c(Br)c2)C(=O)O)cc1 [Example 10, (2S)-3-{3-bromo-4-[2-(5-methyl-2-phenyl-1,3-oxazol-4-yl)-ethoxy]-phenyl}-2-(3-p-tolylacryloylamino)-propanoic acid]",–,24.1 ×10^4,17.2,–,–,–,–
"Cc1oc(-c2ccccc2)nc1CCOc1ccc(C[C@H](NC(=O)C=Cc2ccc(F)cc2F)C(=O)O)cc1Br [Example 12, (2S)-3-{3-bromo-4-[2-(5-methyl-2-phenyl-1,3-oxazol-4-yl)-ethoxy]-phenyl}-2-(3-(2,4-difluorophenyl)-acryloylamino)-propanoic acid]",221 to 223 °C,–,–,–,–,–,–
